# Molecular target: WDR5 (Homo sapiens (Human), UniProt P61964)
# Test: Surface Plasmon Resonance (SPR) assay, KD and residence time
# Format: binding
# Conditions: surface plasmon resonance (SPR); read-out: WDR5 binding affinity (KD)
row,SMILES,Kd
1,"C[C@@H]1CN(c2cc(F)c(C3=CCN(c4ncc(CN5CCOCC5)cn4)CC3)cc2NC(=O)c2c[nH]c(=O)cc2C(F)(F)F)C[C@H](C)N1C [Example 406, N-[4-fluoro-5-[1-[5-(morpholin-4-ylmethyl)pyrimidin-2-yl]-3,6-dihydro-2H-pyridin-4-yl]-2-[(3R,5S)-3,4,5-trimethylpiperazin-1-yl]phenyl]-6-oxo-4-(trifluoromethyl)-1H-pyridine-3-carboxamide]",0.457 nM
2,"C[C@@H]1CN(c2cc(F)c(C3=CCN(c4ncc(CN5CCN(C)CC5)cn4)CC3)cc2NC(=O)c2c[nH]c(=O)cc2C(F)(F)F)C[C@H](C)N1C [Example 407, N-[4-fluoro-5-[1-[5-[(4-methylpiperazin-1-yl)methyl]pyrimidin-2-yl]-3,6-dihydro-2H-pyridin-4-yl]-2-[(3R,5S)-3,4,5-trimethylpiperazin-1-yl]phenyl]-6-oxo-4-(trifluoromethyl)-1H-pyridine-3-carboxamide]",0.231 nM
3,"CC(C)COC(=O)N1CCC=C(c2cc(NC(=O)c3c[nH]c(=O)cc3C(F)(F)F)c(N3C[C@@H](C)N(C)[C@@H](C)C3)cc2F)C1 [Example 408, 2-methylpropyl 5-[2-fluoro-5-[[6-oxo-4-(trifluoromethyl)-1H-pyridine-3-carbonyl]amino]-4-[(3R,5S)-3,4,5-trimethylpiperazin-1-yl]phenyl]-3,6-dihydro-2H-pyridine-1-carboxylate]",2.75 nM
4,"C[C@@H]1CN(c2cc(F)c(C3=CCCN(c4ncc(C=O)cn4)C3)cc2NC(=O)c2c[nH]c(=O)cc2C(F)(F)F)C[C@H](C)N1C [Example 409, N-[4-fluoro-5-[1-(5-formylpyrimidin-2-yl)-3,6-dihydro-2H-pyridin-5-yl]-2-[(3R,5S)-3,4,5-trimethylpiperazin-1-yl]phenyl]-6-oxo-4-(trifluoromethyl)-1H-pyridine-3-carboxamide]",0.229 nM
5,"C[C@@H]1CN(c2cc(F)c(C3=CCCN(c4ncc(CN5CCN(C)CC5)cn4)C3)cc2NC(=O)c2c[nH]c(=O)cc2C(F)(F)F)C[C@H](C)N1C [Example 416, N-[4-fluoro-5-[1-[5-[(4-methylpiperazin-1-yl)methyl]pyrimidin-2-yl]-3,6-dihydro-2H-pyridin-5-yl]-2-[(3R,5S)-3,4,5-trimethylpiperazin-1-yl]phenyl]-6-oxo-4-(trifluoromethyl)-1H-pyridine-3-carboxamide]",0.108 nM
6,"CCN(CC)[C@@H]1CCN(c2cc(F)c(-c3cnc(N4CCOCC4)nc3)cc2NC(=O)c2c[nH]c(=O)cc2C(F)(F)F)C1 [Example 419, N-[4-fluoro-5-(2-morpholin-4-ylpyrimidin-5-yl)-2-[(3R)-3-(diethylamino)pyrrolidin-1-yl]phenyl]-6-oxo-4-(trifluoromethyl)-1H-pyridine-3-carboxamide]",5.37 nM
7,"CC(C)N(C)[C@@H]1CCN(c2cc(F)c(-c3cnc(N4CCOCC4)nc3)cc2NC(=O)c2c[nH]c(=O)cc2C(F)(F)F)C1 [Example 420, N-[4-fluoro-5-(2-morpholin-4-ylpyrimidin-5-yl)-2-[(3R)-3-[methyl(propan-2-yl)amino]pyrrolidin-1-yl]phenyl]-6-oxo-4-(trifluoromethyl)-1H-pyridine-3-carboxamide]",172 nM
8,"C[C@@H]1CN(c2ccc(-c3cc(NC(=O)c4cn(C)c(=O)cc4C(F)(F)F)c(N4C[C@@H](C)N(C)[C@@H](C)C4)cc3F)cn2)C[C@H](C)O1 [Example 422, N-[4-fluoro-5-[6-[(2R,6S)-2,6-dimethylmorpholin-4-yl]pyridin-3-yl]-2-[(3S,5R)-3,4,5-trimethylpiperazin-1-yl]phenyl]-1-methyl-6-oxo-4-(trifluoromethyl)pyridine-3-carboxamide]",2.43 nM
9,"C[C@@H]1CN(c2cc(F)c(-c3cnc(N4CCC(C)(O)CC4)nc3)cc2NC(=O)c2c[nH]c(=O)cc2C(F)(F)F)C[C@H](C)N1C [Example 425, N-[4-fluoro-5-[2-(4-hydroxy-4-methylpiperidin-1-yl)pyrimidin-5-yl]-2-[(3R,5S)-3,4,5-trimethylpiperazin-1-yl]phenyl]-6-oxo-4-(trifluoromethyl)-1H-pyridine-3-carboxamide]",1.06 nM
10,"CCN(CC)[C@@H]1CCN(c2cc(F)c(-c3cnc(N4CCOCC4)nc3)cc2NC(=O)c2cn(C)c(=O)cc2C(F)(F)F)C1 [Example 428, N-[4-fluoro-5-(2-morpholin-4-ylpyrimidin-5-yl)-2-[(3R)-3-(diethylamino)pyrrolidin-1-yl]phenyl]-1-methyl-6-oxo-4-(trifluoromethyl)pyridine-3-carboxamide]",145 nM
11,"C[C@@H]1CN(c2ncc(-c3cc(NC(=O)c4ccc(F)cc4C(F)(F)F)c(N4C[C@@H](C)N(C)[C@@H](C)C4)cc3F)cn2)C[C@H](C)O1 [Example 431, 4-fluoro-N-[4-fluoro-5-[2-[(2R,6S)-2,6-dimethylmorpholin-4-yl]pyrimidin-5-yl]-2-[(3S,5R)-3,4,5-trimethylpiperazin-1-yl]phenyl]-2-(trifluoromethyl)benzamide]",0.649 nM
12,"C[C@@H]1CN(c2ccc(-c3cc(NC(=O)c4ccc(F)cc4C(F)(F)F)c(N4C[C@@H](C)N(C)[C@@H](C)C4)cc3F)cn2)C[C@H](C)O1 [Example 432, 4-fluoro-N-[4-fluoro-5-[6-[(2R,6S)-2,6-dimethylmorpholin-4-yl]pyridin-3-yl]-2-[(3S,5R)-3,4,5-trimethylpiperazin-1-yl]phenyl]-2-(trifluoromethyl)benzamide]",2.31 nM
13,"C[C@@H]1CN(c2cc(F)c(-c3ccc(N4CCOCC4)c(F)c3)cc2NC(=O)c2c[nH]c(=O)cc2C(F)F)C[C@H](C)N1C [Example 436, 4-(difluoromethyl)-N-[4-fluoro-5-(3-fluoro-4-morpholin-4-ylphenyl)-2-[(3R,5S)-3,4,5-trimethylpiperazin-1-yl]phenyl]-6-oxo-1H-pyridine-3-carboxamide]",1.39 nM
14,"COc1cnc(N2CC=C(c3cc(NC(=O)c4c[nH]c(=O)cc4C(F)(F)F)c(N4C[C@@H](C)N(C)[C@@H](C)C4)cc3F)C2)nc1 [Example 437, N-[4-fluoro-5-[1-(5-methoxypyrimidin-2-yl)-2,5-dihydropyrrol-3-yl]-2-[(3R,5S)-3,4,5-trimethylpiperazin-1-yl]phenyl]-6-oxo-4-(trifluoromethyl)-1H-pyridine-3-carboxamide]",0.721 nM
15,"COc1cc(N2CC=C(c3cc(NC(=O)c4c[nH]c(=O)cc4C(F)(F)F)c(N4C[C@@H](C)N(C)[C@@H](C)C4)cc3F)C2)ncn1 [Example 438, N-[4-fluoro-5-[1-(6-methoxypyrimidin-4-yl)-2,5-dihydropyrrol-3-yl]-2-[(3R,5S)-3,4,5-trimethylpiperazin-1-yl]phenyl]-6-oxo-4-(trifluoromethyl)-1H-pyridine-3-carboxamide]",1.99 nM
16,"Cc1cnc(N2CC=C(c3cc(NC(=O)c4c[nH]c(=O)cc4C(F)(F)F)c(N4C[C@@H](C)N(C)[C@@H](C)C4)cc3F)C2)nc1 [Example 439, N-[4-fluoro-5-[1-(5-methylpyrimidin-2-yl)-2,5-dihydropyrrol-3-yl]-2-[(3R,5S)-3,4,5-trimethylpiperazin-1-yl]phenyl]-6-oxo-4-(trifluoromethyl)-1H-pyridine-3-carboxamide]",2.45 nM
17,"C[C@@H]1CN(c2cc(F)c(C3=CCN(c4ncc(F)cn4)C3)cc2NC(=O)c2c[nH]c(=O)cc2C(F)(F)F)C[C@H](C)N1C [Example 440, N-[4-fluoro-5-[1-(5-fluoropyrimidin-2-yl)-2,5-dihydropyrrol-3-yl]-2-[(3R,5S)-3,4,5-trimethylpiperazin-1-yl]phenyl]-6-oxo-4-(trifluoromethyl)-1H-pyridine-3-carboxamide]",2.88 nM

# Reference: patent US11319299B2, “Substituted carboxamides as inhibitors of WDR5 protein-protein binding” (PROPELLON THERAPEUTICS INC., priority 2016, dated 2022)
